In PMC9037210, “Novel 3-(6-methylpyridin-2-yl)coumarin-based chalcones as selective inhibitors of cancer-related carbonic anhydrases IX and XII endowed with anti-proliferative activity” (Journal of Enzyme Inhibition and Medicinal Chemistry, 2022):

What was measured:
[1] = test system: UACC-62; test: NCI single (10 µM) dose SRB screening, UACC-62; format: cell-based, human; details: 10 µM single dose, UACC-62, Melanoma
Experimental: (§1) Following NCI protocol, sixteen MPCs were screened for their potential in vitro anticancer effects against human 59 cancer cell panels including prostate, leukaemia melanoma, colon, breast, CNS, renal, NSCLC, and ovarian cancers by National Cancer Institute (USA)[30].
(§2) The antiproliferative activities of MPC 3 and MPCs 5a–o were first evaluated in a 10 µM dose assay, with SRB assay used to determine cell survival and proliferation. […] The results of the cell growth inhibitory activities for MPCs 5g and 5l towards the different treated tumour cell lines were presented as GI% and presented in Table 3.
(§3) The anticancer test was conducted using the methods of the Drug Evaluation Branch, National Cancer Institute, Bethesda, MD, using 59 human tumour cell lines derived from nine human tissues. The GI50, TGI, and LC50 dose-response parameters were calculated for each medication.

[2] = target: T1, hCA II (Homo sapiens, UniProt P00918); test: stopped-flow CO2 hydrase assay, hCA II; format: biochemical; details: incubation time of 6 h, mean of three assays, read-out: KI CA II
T1 construct: made in house
Experimental: (§4) The newly synthesised MPCs (3 and 5a–o) were assessed for their CA inhibition activity employing the stopped-flow CO2 hydrase assay[29] for constitutional hCA (I/II) isoforms and cancer-linked hCA (IX/XII) isoforms.
(§5) The CA inhibition activity for the herein reported MPC derivatives was evaluated against the hCA isoforms I, II, IX, and XII using stopped-flow CO2 hydrase test[7]^,[33–36] (see the Supplementary Material).
(§6) Carbonic anhydrase inhibition assay
(§7) The carbonic anhydrase catalyzed CO2 hydration actions for all coumarin-based […]
(§8) Photophysics stopped-flow. The enzymes are recombinant proteins prepared in our lab. Phenol red (at a concentration of 0.2 mM) has been used as indicator, working at […]
(§9) mM Na2SO4 (for maintaining constant the ionic strength), following the initial rates of the CA-catalyzed CO2 hydration reaction for a period of 10-100 s. The CO2 concentrations ranged from 1.7 to 17 mM for the determination of the kinetic parameters and inhibition constants. For each inhibitor at least six traces of the initial 5-10% of the reaction have been used for determining the initial velocity. The uncatalyzed rates were determined in the same manner and subtracted from the total observed rates. Stock solutions of inhibitor (0.1 mM) were prepared in distilled-deionized water and dilutions up to 0.01 nM were done thereafter with the assay buffer. Inhibitor and enzyme solutions were preincubated together for 6 hrs. at room temperature prior to assay, in order to allow for the formation of the E-I complex. The inhibition constants were obtained by non-linear least-squares methods using PRISM 3 and the Cheng-Prusoff equation, and represent the mean from at least three different

[3] = test system: OVCAR-4; test: NCI single (10 µM) dose SRB screening, OVCAR-4; format: cell-based, human; details: 10 µM single dose, OVCAR-4, Ovarian cancer
Experimental: as §1, §2, §3

[4] = test system: IGROV1; test: NCI single (10 µM) dose SRB screening, IGROV1; format: cell-based, human; details: 10 µM single dose, IGROV1, Ovarian cancer
Experimental: as §1, §2, §3

[5] = test system: ACHN; test: NCI single (10 µM) dose SRB screening, ACHN; format: cell-based, human; details: 10 µM single dose, Renal cancer
Experimental: as §1, §2, §3

[6] = test system: MOLT-4; test: NCI single (10 µM) dose SRB screening, MOLT-4; format: cell-based, human; details: 10 µM single dose, MOLT-4, Leukaemia
Experimental: as §1, §2, §3

[7] = test system: CAKI-1; test: NCI single (10 µM) dose SRB screening, CAKI-1; format: cell-based, human; details: 10 µM single dose, CAKI-1, Renal cancer
Experimental: as §1, §2, §3

[8] = test system: SF-268; test: NCI single (10 µM) dose SRB screening, SF-268; format: cell-based, human; details: 10 µM single dose, SF-268, CNS cancer
Experimental: as §1, §2, §3

[9] = test system: SK-OV-3; test: NCI single (10 µM) dose SRB screening, SK-OV-3; format: cell-based, human; details: 10 µM single dose, SK-OV-3, Ovarian cancer
Experimental: as §1, §2, §3

[10] = test system: HCC-2998; test: NCI single (10 µM) dose SRB screening, HCC-2998; format: cell-based, human; details: 10 µM single dose, HCC-2998, Colon cancer
Experimental: as §1, §2, §3

[11] = test system: DU-145; test: NCI single (10 µM) dose SRB screening, DU-145; format: cell-based, human; details: 10 µM single dose, DU-145, Prostate cancer
Experimental: as §1, §2, §3

[12] = target: T2, hCA I (Homo sapiens, UniProt P00915); test: stopped-flow CO2 hydrase assay, hCA I; format: biochemical; details: stopped-flow, incubation time of 6 h, mean of three assays; read-out: KI CA I
T2 construct: made in house
Experimental: as §4, §5, §6, §7, §8, §9

[13] = test system: CCRF-CEM; test: NCI single (10 µM) dose SRB screening, CCRF-CEM; format: cell-based, human; details: 10 µM single dose, Leukaemia
Experimental: as §1, §2, §3

[14] = test system: A549/ATCC; test: NCI single (10 µM) dose SRB screening, A549/ATCC; format: cell-based, human; details: 10 µM single dose, NSC lung cancer
Experimental: as §1, §2, §3

[15] = test system: MDA-MB-435; test: NCI single (10 µM) dose SRB screening, MDA-MB-435; format: cell-based, human; details: 10 µM single dose, MDA-MB-435, Melanoma
Experimental: as §1, §2, §3

[16] = test system: SN 12 C; test: NCI single (10 µM) dose SRB screening, SN 12 C; format: cell-based, human; details: 10 µM single dose, Renal cancer
Experimental: as §1, §2, §3

[17] = test system: HOP-62; test: NCI single (10 µM) dose SRB screening, HOP-62; format: cell-based, human; details: 10 µM single dose, HOP-62, NSC lung cancer
Experimental: as §1, §2, §3

[18] = test system: HOP-92; test: NCI single (10 µM) dose SRB screening, HOP-92; format: cell-based, human; details: 10 µM single dose, HOP-92, NSC lung cancer
Experimental: as §1, §2, §3

[19] = test system: SNB-75; test: NCI single (10 µM) dose SRB screening, SNB-75; format: cell-based, human; details: 10 µM single dose, SNB-75, CNS cancer
Experimental: as §1, §2, §3

[20] = test system: HS 578 T; test: NCI single (10 µM) dose SRB screening, HS 578 T; format: cell-based, human; details: 10 µM single dose, Breast cancer
Experimental: as §1, §2, §3

[21] = test system: 786-0; test: NCI single (10 µM) dose SRB screening, 786-0; format: cell-based, human; details: 10 µM single dose, 786-0, Renal cancer
Experimental: as §1, §2, §3

[22] = test system: MDA-MB-231; test: NCI single (10 µM) dose SRB screening, MDA-MB-231; format: cell-based, human; details: 10 µM single dose, MDA-MB-231, Breast cancer
Experimental: as §1, §2, §3

[23] = test system: BT-549; test: NCI single (10 µM) dose SRB screening, BT-549; format: cell-based, human; details: 10 µM single dose, BT-549, Breast cancer
Experimental: as §1, §2, §3

[24] = test system: SK-MEL-28; test: NCI single (10 µM) dose SRB screening, SK-MEL-28; format: cell-based, human; details: 10 µM single dose, SK-MEL-28, Melanoma
Experimental: as §1, §2, §3

[25] = test system: KM 12; test: NCI single (10 µM) dose SRB screening, KM 12; format: cell-based, human; details: 10 µM single dose, KM 12, Colon cancer
Experimental: as §1, §2, §3

[26] = test system: OVCAR-8; test: NCI single (10 µM) dose SRB screening, OVCAR-8; format: cell-based, human; details: 10 µM single dose, OVCAR-8, Ovarian cancer
Experimental: as §1, §2, §3

[27] = test system: SF-295; test: NCI single (10 µM) dose SRB screening, SF-295; format: cell-based, human; details: 10 µM single dose, SF-295, CNS cancer
Experimental: as §1, §2, §3

[28] = test system: HL-60(TB); test: NCI single (10 µM) dose SRB screening, HL-60(TB); format: cell-based, human; details: 10 µM single dose, Leukaemia
Experimental: as §1, §2, §3

T2 sequence (P00915 whole entry): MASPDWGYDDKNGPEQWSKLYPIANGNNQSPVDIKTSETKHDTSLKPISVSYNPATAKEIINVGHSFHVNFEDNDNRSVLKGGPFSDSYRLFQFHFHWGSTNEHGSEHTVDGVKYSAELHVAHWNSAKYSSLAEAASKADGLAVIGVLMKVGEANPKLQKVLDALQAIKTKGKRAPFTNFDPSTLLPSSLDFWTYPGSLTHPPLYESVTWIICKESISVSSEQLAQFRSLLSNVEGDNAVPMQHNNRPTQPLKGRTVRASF

| SMILES | GI % [1] | Ki [2] | GI % [3] | GI % [4] | GI % [5] | GI % [6] | GI % [7] | GI % [8] | GI % [9] | GI % [10] | GI % [11] | Ki [12] | GI % [13] | GI % [14] | GI % [15] | GI % [16] | GI % [17] | GI % [18] | GI % [19] | GI % [20] | other results |
| --- | --- | --- | --- | --- | --- | --- | --- | --- | --- | --- | --- | --- | --- | --- | --- | --- | --- | --- | --- | --- | --- |
| Cc1nc(-c2cc3ccccc3oc2=O)ccc1C(=O)/C=C/c1ccccn1 [Compound 5l, 3-(6-Methyl-5-[(2E)-3-(pyridin-2-yl)prop-2-enoyl]pyridin-2-yl)-2H-chromen-2-one] | 28% | > 100 µM | – (Only GI % more than 20% are displayed.) | 93% | 41% | 72% | 39% | 21% | – (Only GI % more than 20% are displayed.) | 33% | 52% | > 100 µM | 93% | 33% | 29% | 52% | – (Only GI % more than 20% are displayed.) | – (Only GI % more than 20% are displayed.) | 43% | – (Only GI % more than 20% are displayed.) | GI % [21]: 93%; GI % [22]: 87%; GI % [23]: – (Only GI % more than 20% are displayed.); GI % [24]: – (Only GI % more than 20% are displayed.); GI % [25]: 93%; GI % [26]: 30%; GI % [27]: 28%; GI % [28]: 67% |
| Cc1nc(-c2cc3ccccc3oc2=O)ccc1C(=O)/C=C/c1ccc(N2CCOCC2)cc1 [Compound 5g, 3-(6-Methyl-5-[(2E)-3-[4-(morpholin-4-yl)phenyl]prop-2-enoyl]pyridin-2-yl)-2H-chromen-2-one] | 47% | > 100 µM | 27% | – (Only GI % more than 20% are displayed.) | 29% | 33% | 34% | 24% | – (Only GI % more than 20% are displayed.) | – (Only GI % more than 20% are displayed.) | – (Only GI % more than 20% are displayed.) | > 100 µM | 27% | – (Only GI % more than 20% are displayed.) | 121% | – (Only GI % more than 20% are displayed.) | – (Only GI % more than 20% are displayed.) | – (Only GI % more than 20% are displayed.) | 41% | 40% | GI % [21]: 24%; GI % [22]: 45%; GI % [23]: 23%; GI % [24]: 27%; GI % [25]: 31%; GI % [26]: – (Only GI % more than 20% are displayed.); GI % [27]: 33%; GI % [28]: 61% |
